Test results: patent US8143394B2, “Pyrido(3,2-d)pyrimidines useful for treating viral infections” (Gilead Sciences, Inc., priority 2006, dated 2012)

Columns and labels:
HCV replicon = experiment: Anti-HCV replicon assay (EC50, luciferase readout); format: cell-based; conditions: Hepatitis C virus, 72 h; human hepatoma Huh-7 cell line harbouring a HCV replicon; 3 days; luciferase; read-out: EC50
Experimental: (§1) The anti-HCV activity of the pyrido[3,2-d]pyrimidine derivatives of this invention was tested in a human hepatoma Huh-7 cell line harbouring a HCV replicon. The assay comprised the following steps:
(§2) Step 1: Compound Preparation and Serial Dilution
(§3) • 1. for water soluble pyrido[3,2-d]pyrimidine derivatives, a volume of 500 μL of solution in cell media (DMEM, 10% FBS, P/S, L-Glutamine) was prepared with a concentration being twice the concentration of the starting final serial dilution concentration. A volume of 150 μL of the solution was added to the pre-specified wells in column 1 of a 96-well cell culture plate (PerkinElmer, white plate, cat. #6005181, for EC50 assay; black plate, cat. #6005182 for CC50 assay). The rest of the plate, columns 2-12, was filled with 100 μL of cell media. The plate was then placed on a Precision 2000 Workstation to start the serial dilution. Compounds were diluted three times each step from column 1 to column 10. Column 11 was used as a blank control (no compound added). • 2. for pyrido[3,2-d]pyrimidine derivatives requiring DMSO to dissolve, serial dilution is performed in 50% DMSO in a 384-well plate. A solution containing a compound at 100-fold concentration of the starting final serial dilution concentration was prepared in 50% DMSO and added to the pre-specified wells in column 1 of a polypropylene 384-well plate. The plate was then placed on a Precision 2000 Workstation to start the serial dilution. After the serial dilution, a volume of 2 μL of the solution was transferred from the 384-well plate to a 96-well cell culture plate containing 100 μL of cell media on a Biomek FX Workstation. The DMSO concentration in the final assay condition was 0.5% after cells are added to the plate and the total volume in each well is brought to 200 μL. Step 2: to each well of the serial dilution plate prepared above, 100 μL of cell media containing 6000 suspended Huh-7 HCV replicon cells was added with a Multidrop workstation. The plates were incubated for 3 days at 37° C. with 5% CO2. Step 3: Detection: • a) for the EC50 assay, the media in a 96-well cell culture plate was aspirated with a Biotek EL405 plate-washer. A volume of 200 μL of a solution containing a 1:1 mixture of cell-lysis buffer (Promega, Luciferase Cell Culture Lysis 5X Reagent, cat. #E1531) and luciferase substrate solution (Promega, Luciferase Assay, cat. # E4550) was added to each well of the plate with Multidrop. The plate was incubated for 30 minutes at room temperature before the luminescence signal was measured with a TopCount plate-reader. • b) for the CC50 assay, a volume of 100 μL of pre-mixed CellTiter-Glo (Promega, cat. # G7572) solution is added directly to the cell culture in each well of the plate and the luminescence signal is measured with a TopCount plate-reader after 10 minutes of incubation at room temperature.
(§4) Results in table 13 are expressed by the following data: • the 50% effective concentration (EC50), i.e. the concentration that protects 50% of the cell monolayer from virus-induced cythopathic effect, and • the 50% cytostatic concentration (CC50), i.e. the concentration that results in 50% inhibition of cell growth.

[1] = CC50 assay (CellTiter-Glo) in Huh-7 HCV replicon cells; format: cell-based, human; conditions: human, 50% cytostatic concentration
Experimental: as §1, §2, §3, §4

## CC(C)(CN1CCOCC1)NC(=O)c1ccc(-c2ccc3nc(N)nc(O[C@H]4CCOC4)c3n2)cc1 [Example 81, 4-[2-Amino-4-(tetrahydro-furan-3-yloxy)-pyrido[3,2-d]pyrimidin-6-yl]-N-(1,1-dimethyl-2-morpholin-4-yl-ethyl)-benzamide]
HCV replicon
  EC50: < 0.3 µM
[1]
  CC50 at 3 days: > 20 µM

## Nc1nc(O[C@H]2CCOC2)c2nc(-c3ccc(C(=O)NCC(F)(F)F)cc3)ccc2n1 [Example 82, 4-[2-Amino-4-(tetrahydro-furan-3-yloxy)-pyrido[3,2-d]pyrimidin-6-yl]-N-(2,2,2-trifluoro-ethyl)-benzamide]
HCV replicon
  EC50: < 0.3 µM
[1]
  CC50 at 3 days: 10 to 20 µM

## CC(C)Oc1nc(N)nc2ccc(-c3ccc(NC(=O)C(C)C)cc3)nc12 [Example 29, N-[4-(2-amino-4-isopropoxy-pyrido[3,2-d]pyrimidin-6-yl)-phenyl]-isobutyramide]
HCV replicon
  EC50: < 0.3 µM
[1]
  CC50 at 3 days: > 20 µM

## CCOc1nc(N)nc2ccc(-c3ccc(NC(=O)[C@H](C)N)cc3)nc12 [Example 42, 2-Amino-N-[4-(2-amino-4-ethoxy-pyrido[3,2-d]pyrimidin-6-yl)-phenyl]-propionamide]
HCV replicon
  EC50: < 0.3 µM
[1]
  CC50 at 3 days: > 20 µM

## CC(C)(N)C(=O)Nc1ccc(-c2ccc3nc(N)nc(O[C@@H]4CCOC4)c3n2)cc1 [Example 25, 2-Amino-N-{4-[2-amino-4-(tetrahydro-furan-3-yloxy)-pyrido[3,2-d]pyrimidin-6-yl]-phenyl}-2-methyl-propionamide]
HCV replicon
  EC50: < 0.3 µM
[1]
  CC50 at 3 days: 10 to 20 µM

## CCOc1nc(N)nc2ccc(-c3ccc(C(=O)NCC(C)C)cc3)nc12 [Example 56, 4-(2-Amino-4-ethoxy-pyrido[3,2-d]pyrimidin-6-yl)-N-isobutyl-benzamide]
HCV replicon
  EC50: 0.3 to 1 µM
[1]
  CC50 at 3 days: > 20 µM

## CS(=O)(=O)CCNc1nc(N)nc2ccc(-c3cccc(NS(C)(=O)=O)c3)nc12 [Example 3, N-{3-[2-Amino-4-(2-methanesulfonyl-ethylamino)-pyrido[3,2-d]pyrimidin-6-yl]-phenyl}-methanesulfonamide]
HCV replicon
  EC50: 0.3 to 1 µM
[1]
  CC50 at 3 days: > 20 µM

## COc1nc(N)nc2ccc(-c3ccc(C(=O)NC4CC4)cc3)nc12 [Example 74, 4-(2-Amino-4-methoxy-pyrido[3,2-d]pyrimidin-6-yl)-N-cyclopropyl-benzamide]
HCV replicon
  EC50: 0.3 to 1 µM
[1]
  CC50 at 3 days: 10 to 20 µM

## CC(C)(N)C(=O)Nc1ccc(-c2ccc3nc(N)nc(NCCS(C)(=O)=O)c3n2)cc1 [Example 1, 2-Amino-N-{4-[2-amino-4-(2-methanesulfonyl-ethylamino)-pyrido[3,2-d]pyrimidin-6-yl]-phenyl}-2-methyl-propionamide]
HCV replicon
  EC50: < 0.3 µM
[1]
  CC50 at 3 days: < 10 µM

## Nc1nc(O[C@@H]2CCOC2)c2nc(-c3ccc(NC(=O)[C@H]4CCNC4)c(F)c3)ccc2n1 [Example 22, Pyrrolidine-3-carboxylic acid {4-[2-amino-4-(tetrahydro-furan-3-yloxy)-pyrido[3,2-d]pyrimidin-6-yl]-2-fluoro-phenyl}-amide]
HCV replicon
  EC50: < 0.3 µM
[1]
  CC50 at 3 days: > 20 µM

## CCOc1nc(N)nc2ccc(-c3ccc(C(=O)NOC)cc3)nc12 [Example 60, 4-(2-Amino-4-ethoxy-pyrido[3,2-d]pyrimidin-6-yl)-N-methoxy-benzamide]
HCV replicon
  EC50: > 1 µM
[1]
  CC50 at 3 days: > 20 µM

## CCOc1nc(N)nc2ccc(-c3ccc(C(=O)Nc4ccccc4)cc3)nc12 [Example 87, 4-(2-Amino-4-ethoxy-pyrido[3,2-d]pyrimidin-6-yl)-N-phenyl-benzamide]
HCV replicon
  EC50: > 1 µM
[1]
  CC50 at 3 days: > 20 µM

## COCCNc1nc(N)nc2ccc(-c3ccc(NC(=O)C(C)C)cc3)nc12 [Example 9, N-{4-[2-Amino-4-(2-methoxy-ethylamino)-pyrido[3,2-d]pyrimidin-6-yl]-phenyl}-isobutyramide]
HCV replicon
  EC50: < 0.3 µM
[1]
  CC50 at 3 days: 10 to 20 µM

## CCOc1nc(N)nc2ccc(-c3ccc(NC(=O)C4(N)CC4)cc3)nc12 [Example 36, 1-Amino-cyclopropanecarboxylic acid [4-(2-amino-4-ethoxy-pyrido[3,2-d]pyrimidin-6-yl)-phenyl]-amide]
HCV replicon
  EC50: < 0.3 µM
[1]
  CC50 at 3 days: > 20 µM
